# Data as given in US12692270B2, “Crystal form of casein kinase 1ϵ inhibitor and preparation method and use thereof” (HANGZHOU HEALZEN THERAPEUTICS CO., LTD., priority 2020, dated 2026).
# Where two headings read alike, the source gives them in different places.
# What was measured:
# [1] = Equilibrium solubility of crystal forms in purified water (HPLC); format: physicochemical; details: for Water solubility: saturated (equilibrium) solubility in purified water, room temperature, HPLC, methanesulfonate; for Solubility in water (in words): summary of Table 8
# Excerpt: Preparation of a standard curve: Appropriate amounts of a series of compounds were accurately weighed, placed in volumetric flasks, and dissolved and diluted with an appropriate amount of acetonitrile to a certain scale to serve as stock solutions. Appropriate amounts of the stock solutions were accurately weighed, placed in volumetric flasks, diluted with a mobile phase to a certain scale, and uniformly shaken to obtain a series of high-concentration standard solutions and low-concentration standard solutions. The standard solutions were separately sampled in the sequence from low concentration to high concentration, and peak areas were recorded. Linear regression was conducted with the compound concentration as the abscissa and the peak area as the ordinate to obtain a linear regression equation of a compound, namely, a standard curve of the solubility of the compound as shown in the formula (I).
# Determination of equilibrium solubility: An excess amount of a compound was placed in a 10 mL plugged EP tube, 2 mL of purified water was added, and the compound was subjected to ultrasonic treatment at room temperature for 15 min, followed by standing for 20 min. The above operations were repeated for 4 times, centrifugation was conducted at 3,000 r/min for 10 min, and a supernatant was taken (after the supernatant was properly diluted with a solvent) and filtered through a microporous filtration membrane. A filtrate was taken for HPLC detection, and the peak area was recorded and substituted into the standard curve to calculate the saturated solubility of each compound in water.
# [2] = Pharmacokinetic test in rats in vivo, plasma concentration after oral administration; details: for Cmax: 10 mg/kg, intragastric, suspension in sodium carboxymethyl cellulose solution
# Experimental: (§1) Experimental method: SD rats were used as experimental animals and intragastrically administrated with a milky white suspension prepared from a sodium carboxymethyl cellulose solution at a dose of 10 mg/kg. After the intragastric administration, blood was collected at the time points of 0.17, 0.33, 0.5, 1, 1.5, 2, 4, 6, 8, 12 and 24 h. 0.3 ml of whole blood was taken and subjected to centrifugation, and then 0.1 ml of plasma was taken and analyzed by LC-MS.
# [3] = Pharmacokinetic test in dogs in vivo, plasma concentration after oral administration; details: Beagles
# Experimental: as §1, with “Beagles” for “SD rats”, “0,” for “0.17, 0.33,”, “1,” for “1, 1.5,”, “2, 3,” for “2,”, “8” for “8, 12”
# [4] = SD, rat, plasma, po, mean n=3, read-out: Cmax
# [5] = SD rats, mean n=3, methanesulfonate
SMILES,Water solubility [1] [µg/mL],Solubility in water (in words) [1],also measured
"COc1ccc(-c2nn([C@@H](C)c3nc4cccc(Cl)c4c(=O)n3-c3ccccc3)c3ncnc(N)c23)c(F)c1F.CS(=O)(=O)O [Crystal form B, (S)-2-(1-(4-amino-3-(2,3-difluoro-4-methoxyphenyl)-1H-pyrazolo[3,4-d]pyrimidin-1-yl)ethyl)-5-chloro-3-phenylquinazoline-4(3H)one methanesulfonate]",2.50,soluble in water,
"COc1ccc(-c2nn([C@@H](C)c3nc4cccc(Cl)c4c(=O)n3-c3ccccc3)c3ncnc(N)c23)c(F)c1F.CS(=O)(=O)O [compound as shown in the formula (I), (S)-2-(1-(4-amino-3-(2,3-difluoro-4-methoxyphenyl)-1H-pyrazolo[3,4-d]pyrimidin-1-yl)ethyl)-5-chloro-3-phenylquinazoline-4(3H)one methanesulfonate]",,,"Pharmacokinetic properties compared with the free alkali (in words) ([2]; SD rats, oral 10 mg/kg, crystal forms C, D and F investigated): significantly improved; Pharmacokinetic properties compared with the free alkali (in words) ([3]; oral 10 mg/kg, crystal form F investigated): significantly improved"
"COc1ccc(-c2nn([C@@H](C)c3nc4cccc(Cl)c4c(=O)n3-c3ccccc3)c3ncnc(N)c23)c(F)c1F.CS(=O)(=O)O [Crystal form A, (S)-2-(1-(4-amino-3-(2,3-difluoro-4-methoxyphenyl)-1H-pyrazolo[3,4-d]pyrimidin-1-yl)ethyl)-5-chloro-3-phenylquinazoline-4(3H)one methanesulfonate]",<1.0,soluble in water,
"COc1ccc(-c2nn([C@@H](C)c3nc4cccc(Cl)c4c(=O)n3-c3ccccc3)c3ncnc(N)c23)c(F)c1F.CS(=O)(=O)O [Crystal form C, (S)-2-(1-(4-amino-3-(2,3-difluoro-4-methoxyphenyl)-1H-pyrazolo[3,4-d]pyrimidin-1-yl)ethyl)-5-chloro-3-phenylquinazoline-4(3H)one methanesulfonate]",3.84,soluble in water,"Cmax [2, 4]: 1640 ng/mL"
"COc1ccc(-c2nn([C@@H](C)c3nc4cccc(Cl)c4c(=O)n3-c3ccccc3)c3ncnc(N)c23)c(F)c1F.CS(=O)(=O)O [Crystal form E, (S)-2-(1-(4-amino-3-(2,3-difluoro-4-methoxyphenyl)-1H-pyrazolo[3,4-d]pyrimidin-1-yl)ethyl)-5-chloro-3-phenylquinazoline-4(3H)one methanesulfonate]",1.25,soluble in water,
"COc1ccc(-c2nn([C@@H](C)c3nc4cccc(Cl)c4c(=O)n3-c3ccccc3)c3ncnc(N)c23)c(F)c1F [(S)-2-(1-(4-amino-3-(2,3-difluoro-4-methoxyphenyl)-1H-pyrazolo[3,4-d]pyrimidin-1-yl)ethyl)-5-chloro-3-phenylquinazoline-4(3H)-one]",,,"Cmax [2, 4]: 456 ng/mL"
"COc1ccc(-c2nn([C@@H](C)c3nc4cccc(Cl)c4c(=O)n3-c3ccccc3)c3ncnc(N)c23)c(F)c1F.CS(=O)(=O)O [Crystal form D, (S)-2-(1-(4-amino-3-(2,3-difluoro-4-methoxyphenyl)-1H-pyrazolo[3,4-d]pyrimidin-1-yl)ethyl)-5-chloro-3-phenylquinazoline-4(3H)one methanesulfonate]",4.60,soluble in water,"Cmax [2, 5]: 1866.0 ng/mL"
"COc1ccc(-c2nn([C@@H](C)c3nc4cccc(Cl)c4c(=O)n3-c3ccccc3)c3ncnc(N)c23)c(F)c1F.CS(=O)(=O)O [Crystal form F, (S)-2-(1-(4-amino-3-(2,3-difluoro-4-methoxyphenyl)-1H-pyrazolo[3,4-d]pyrimidin-1-yl)ethyl)-5-chloro-3-phenylquinazoline-4(3H)one methanesulfonate]",24.80,soluble in water,"Cmax [2, 5]: 2855.31 ng/mL; AUC ([3]; beagle, dog, plasma, po, intragastric, 10 mg/kg, suspension in sodium carboxymethyl cellulose solution, mean n=2, NA = value lower than the lower detection limit): 3820 ng·h/mL"
